“Also recorded” adds a separate entry of the source.
How the values were obtained:
oestrogen receptors = conditions: Merriam et al, 1980; cited from earlier work
[1] = test system: human cultured airway smooth muscle cells; test: Protein synthesis: [3H]-leucine incorporation; format: cell-based; conditions: for 5HT-stimulated increase in protein synthesis: 5HT 10 nM, 0.3-10 μM
Description: (§1) Human bronchial airway smooth muscle was obtained from macroscopically normal lung resection specimens from lung transplant donors or recipients provided by the Alfred Hospital (Melbourne). Cultures were prepared as previously described in detail (Tomlinson et al., 1994). Briefly, the tissue was partially digested in Dulbecco's Modified Eagle's Medium (DMEM), [supplemented with 2 mM L-glutamine, 100 μg/ml streptomycin, 100 U/ml penicillin-G, 2 μg/ml amphotericin B, and 0.25% w/v bovine serum albumin (BSA)] containing 3 mg/ml collagenase for 30 minutes at 37° C. and approximately 0.5 g smooth muscle was further digested by a 2 hour incubation in 0.5 mg/ml elastase, followed by an 18 hour incubation in collagenase (3 mg/ml) at 37° C. Cell suspensions ere centrifuged (10 min, 100×g, 25° C.), washed three times in supplemented DMEM, resuspended in 25 ml DMEM containing 10% (v/v) heat-inactivated foetal calf serum (FCS), seeded into 25 cm^2 Falcon culture flasks and incubated (37° C., 5% CO2) for 7 to 10 days until monolayer confluence was reached. Cells were then harvested weekly by 10 min exposure to 0.5% trypsin, 1 mM EDTA and passaged at a 1:3 split ratio into 75 cm^2 Falcon culture flaskes. Cells at passage numbers 3 to 15 were used for experiments.
(§2) Cells were subcultured into 24-well plates at a 1:3 ratio and allowed to grow to monolayer confluency over a 72-96 hour period in an atmosphere of 5% CO2 in air at 37° C. The serum-containing medium was replaced with serum-free DMEM for a 24 hour period to produce growth arrest. In some experiments, the cells were pretreated with 2-methoxyestradiol 30 min before the addition of mitogen. The stimulant (mitogen) was added to the appropriate wells together with a supplement containing insulin, transferrin, and selenium (Monomed A, 1% v/v). Monomed A was added to provide progression factors which are essential for the mitogenic activity of growth factors such as thrombin, epidermal growth factor (EGF) and basic fibroblast growth factor (bFGF) (Stewart et al., 1995a). Mitogens and inhibitors were left in contact with cells from the time of addition until the end of the experiment, unless indicated otherwise. Cells were incubated for 24 hours (37° C., 5% CO2) before being pulsed with [^3 H]-thymidine (1 μCi/ml for four hours) to measure incorporation of radiolabel into newly synthesized DNA, according to out previous study (Stewart et al., 1995). Incorporation of radioactivity was determined by filtration at the end of the pulse-labelling period. The medium containing the radioactivity was aspirated and the cells were lysed by addition of 200 μl of 0.1M NaOH. The DNA was immobilised by filtration in a binding harvester (Packard Filtermate 196) on glass fibre filters (Packard, standard), which were then washed with 3×3 ml volumes of distilled water and a single 1 ml volume of 100% ethanol. The dried filters were counted in a Packard Topcount liquid scintillation counter. Protein synthesis rates were determined in experiments of analogous design to those described above, but [^3 H]-leucine replaced [^3 H]-thymidine in the pulsing incubation of 4 hours. Furthermore, in experiments to determine the effects of mitogens and 2-methoxyestradiol on the rate of protein synthesis, incubations with mitogen were carried out for a period of 48 hours. The longer duration of these experiments was required to allow sufficient time for cell division to occur.
(§3) Each treatment in an individual experiment was carried out in quadruplicate for DNA and protein synthesis experiments. Each experiment was performed in at least three different cultures obtained from three different individuals. For cell counting, single incubations were carried out in three cultures. Results are presented as grouped data from multiple cultures and are expressed as mean ±S. E. of n cultures. The degree of increment was calculated by dividing the response of treated wells by that of the control wells on the same 24-well plate.

[2] = test system: airway smooth muscle cells; conditions: 10 μM
[3] = test system: endothelial cells and fibroblasts; conditions: actively proliferating or non-quiescent; cited from earlier work
[4] = test system: polymorphonuclear leukocytes (PMN); test: Superoxide anion generation in PMN; format: cell-based, human; conditions: fMLP (100 nM) or zymosan (400 μg/ml); up to 10 μM
adherent monocytes = test: Tetramethyl benzidine oxidation in adherent monocytes; format: cell-based, human; conditions: PMA (1 μM) or zymosan (400 μg/ml); 10 μM
RBL2H3 cells = test: Mast cell degranulation: [3H]-5HT release; format: cell-based; conditions: for DNP-OA-stimulated release of [3H]-5HT: ovalbumin (DNP-OA), 10 μM
Description: RBL2H3 cells were cultured in RPMI 1640 containing 10% FCS and were passaged into 24 well plates for experiments. The cells were sensitised by a 48 hour incubation with 50% (V/V) conditioned medium from a lymphoid cell line secreting anti-DNP ovalbumin antibody. During the last 24 hours of this incubation [^3 H]-5HT (1 μCi/ml) was added to each of the wells to label granular amine stores. At the end of the incubation period, the medium was aspirated, the cells were washed twice in RPMI 1640 and incubated in RPMI 1640 (0.25% BSA) in the absence or presence of 2-methyoxyoestradiol for 15 mins prior to stimulation with DNP-treated ovalbumin, A23187 or PMA for 30 mins at which time the supernatants were harvested, subjected to centrifugation (1000×g, 4° C., 5 min) and aliquots taken for determination of the amount of [^3 H]-5HT released. All experiments were carried out in quadruplicate.

tubulin = conditions: literature; cited from earlier work
smooth muscle = conditions: Goyache et al., 1995; cited from earlier work
[5] = test system: human cultured airway smooth muscle cells; test: DNA synthesis: [3H]-thymidine incorporation; format: cell-based
Description: as §1, §2, §3

glucocorticoid receptors = conditions: Merriam et al, 1980; cited from earlier work
[6] = 3 μM, thrombin, additional time points

COc1cc2c(cc1O)CC[C@@H]1[C@@H]2CC[C@]2(C)[C@@H](O)CC[C@@H]12 [2-methoxyestradiol, 1,3,5[10]-estratriene-2,3,17-triol 2-methylether]
affinity for oestrogen receptors (oestrogen receptors): not to have significant affinity | 5HT-stimulated increase in protein synthesis [1]: decreased | 5HT-stimulated increase in protein synthesis ([1]; listed as 2-methoxyoestradiol): inhibited | [3H]-leucine incorporation, compound alone, 0.3 μM ([1]; unstimulated, 0.3 μM): small stimulation | cell detachment from the culture plates [2]: no cell detachment | protein synthesis rates (as evidence against cytotoxicity) [2]: not altered | proliferation of endothelial cells and fibroblasts [3]: inhibits proliferation | superoxide anion generation in PMN [4]: not reduced | oxidation of tetramethyl benzidine in adherent monocytes (adherent monocytes): unaffected | release of [3H]-5HT, basal or PMA or A23187 (RBL2H3 cells; basal, PMA (100 nM), A23187 (10 μM)): unaffected; also recorded: did not affect release in response to PMA | DNP-OA-stimulated release of [3H]-5HT (RBL2H3 cells): reduced | DNP-OA-stimulated release of [3H]-5HT (RBL2H3 cells; listed as 2-methoxyoestradiol): inhibits degranulation | microtubule disruption / tubulin polymerisation (tubulin): microtubule disruption via binding at the colchicine site on tubulin | calcium influx into smooth muscle (smooth muscle): decrease calcium influx | DNA synthesis, addition at 18 hours or later after thrombin ([5]; 3 μM, thrombin 0.3 U/ml): no effect | time of addition after thrombin giving maximum inhibition ([5]; 3 μM, thrombin 0.3 U/ml, first time-course): 2 h | thrombin-stimulated DNA synthesis, addition up to 4 h after thrombin ([5]; 3 μM, thrombin 0.3 U/ml, time-course): inhibited | persistence of significant inhibition after thrombin addition [5, 6]: up to 6 hours | time of addition giving the highest level of activity [5, 6]: either simultaneously or 1 hour after thrombin | relative potency among analogues examined ([5]; DNA synthesis): most potent of the analogues examined | DNA synthesis in the presence of EGF or 10% FCS ([5]; EGF 3 nM or 10% FCS, relative to thrombin, bFGF, lower FCS): inhibited to a significantly lesser extent | FCS (1%)-stimulated DNA synthesis, 10 μM ([5]; FCS 1%, 10 μM): inhibition was observed at 10 μM; also recorded: equivalent to 2-methoxyestradiol (10 μM) | FCS (1%)-stimulated DNA synthesis, lower concentrations ([5]; FCS 1%, lower concentrations): enhanced | inhibition with FCS (10%) ([5]; FCS 10%): significantly less inhibited | inhibition at 3 µM ([5]; Homo sapiens, 3 μM, thrombin 0.3 U/ml, read-out: inhibition of DNA synthesis, addition between 4 and 14 hours after thrombin): ~20% | activity at 10 µM ([5]; Homo sapiens, thrombin 0.3 U/ml, 10 μM, read-out: response to thrombin ([3H]-thymidine), remaining): ~10% | concentration-response of enhancement of thrombin-stimulated DNA synthesis ([5]; thrombin): bell-shaped concentration-response curve | enhancement of thrombin-stimulated DNA synthesis, 10 μM ([5]; thrombin 0.3 U/ml, 10 μM): level of enhancement declined at 10 μM | thrombin-stimulated incorporation of [3H]-thymidine ([5]; thrombin 0.3 U/ml, 0.3-10 μM, 30 min pretreatment): concentration-dependentreduction | thrombin-stimulated DNA synthesis (analogues) ([5]; thrombin 0.3 U/ml, up to 3 μM): enhanced thrombin-stimulated DNA synthesis | affinity for glucocorticoid receptors (glucocorticoid receptors): not to have significant affinity
